The record followed here is patent publication US11339156B2, “3-(1H-pyrazol-4-yl)pyridine allosteric modulators of the M4 muscarinic acetylcholine receptor” (Merck Sharp & Dohme Corp., priority 2017, dated 2022).

The assay has as its target T1, human M4 muscarinic acetylcholine receptor (Homo sapiens, UniProt P08173).
T1 construct: expressed in transfected cells
T1 sequence (P08173 1-479): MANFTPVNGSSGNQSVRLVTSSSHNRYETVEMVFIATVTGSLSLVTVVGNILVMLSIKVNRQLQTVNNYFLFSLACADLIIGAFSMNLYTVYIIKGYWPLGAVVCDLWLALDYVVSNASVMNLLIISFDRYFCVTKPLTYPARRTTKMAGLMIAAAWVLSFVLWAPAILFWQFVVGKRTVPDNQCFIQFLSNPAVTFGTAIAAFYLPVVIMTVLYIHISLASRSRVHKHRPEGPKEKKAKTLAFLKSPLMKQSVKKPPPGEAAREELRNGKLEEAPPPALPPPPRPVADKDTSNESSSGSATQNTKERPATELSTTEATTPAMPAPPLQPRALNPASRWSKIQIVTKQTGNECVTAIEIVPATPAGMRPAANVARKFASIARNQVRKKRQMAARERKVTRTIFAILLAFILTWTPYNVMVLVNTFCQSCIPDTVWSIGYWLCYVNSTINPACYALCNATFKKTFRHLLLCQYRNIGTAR
The assay is described as follows: human FLIPR-based M4 PAM assay (CHO-K1 cells with human M4 receptor and Gαqi5, calcium dye fluorescence). In kind it is cell-based. The settings on record: inflection point of 4 parameter logistic fit; acetylcholine added at 20% of maximum response; read-out: M4PAM IP. On the procedure:
In a typical experiment the M4 muscarinic acetylcholine receptor modulating activity of the compounds of the present invention was determined in accordance with the following experimental method. CHO-K1 cells stably transfected with human M4 receptor and chimeric G-protein Gαqi5 (Coward P, et al., Analytical Biochemistry, 270:242-248 (1999)) are thawed from liquid N2 storage, resuspended in growth medium, plated in black, clear bottom 384 well plates, and incubated 16-20 hours at 37° C., 5% CO2. On the day of assay, growth medium is removed, the cells are washed 2 times with wash buffer, and cells are incubated in dye loading buffer at 37° C., 5% CO2 for ˜1 hour. Following dye loading the cell plates are placed in a FLIPR Tetra instrument and while monitoring dye fluorescence (excitation […]), 10 uL of test substance at increasing concentrations is added, and fluorescence values are recorded for 4 min. Next, 10 uL of acetylcholine is added (final concentration calculated so as to achieve 20% of the maximum acetycholine response), and the fluorescence reading is continued for 3.5 min. In some cases, a third addition of acetylcholine (final concentration calculated to achieve 70% of the maximal acetylcholine response) is performed. The resulting dose response curves are fit to a 4 parameter logistic equation and the final result is determined as the inflection point (IP) of the curve
CHO-K1 cells stably transfected with human M4 receptor and chimeric G-protein Gαqi5 are thawed from liquid N2 storage, resuspended in growth medium, plated in black, clear bottom 384 well plates, and incubated 16-20 hours at 37° C., 5% CO2.
On the day of assay, growth medium is removed, the cells are washed 2 times with wash buffer, and cells are incubated in dye loading buffer at 37° C., 5% CO2 for ˜1 h. Following dye loading the cell plates are placed in a FLIPR Tetra instrument and while monitoring dye fluorescence ([…]), 10 uL of test substance at increasing concentrations is added, and fluorescence values are recorded for 4 min. Next, 10 uL of acetylcholine is added (final concentration calculated so as to achieve 20% of the maximum acetycholine response), and the fluorescence reading is continued for 3.5 min. In some cases, a third addition of acetylcholine (final concentration calculated to achieve 70% of the maximal acetylcholine response) is performed.
Consider `Cc1cn2ccc(-c3ncccc3-c3cnn(CC4(CC(F)F)CC4)c3)cc2n1` [Example 17, 7-[3-(1-{[1-(2,2-difluoroethyl)cyclo-propyl]methyl}-1H-pyrazol-4-yl)pyridin-2-yl]-2-methylimidazo[1,2-a]pyridine], for which the EC50 is 277 nM. With `Cc1nc2cc(-c3nc(C#N)ccc3-c3cnn(CC(F)C(C)(F)F)c3)ccc2n1C` (centres unmarked) [Example 32, 6-(1,2-dimethyl-1H-benzimidazol-5-yl)-5-[1-(2,3,3-trifluorobutyl)-1H-pyrazol-4-yl]pyridine-2-carbonitrile], the EC50 came out at 81.9 nM. As for `CC1(Cn2cc(-c3ccc(C#N)nc3-c3ccn4ccnc4c3)cn2)CCC1` [Example 94, 6-imidazo[1,2-a]pyridin-7-yl-5-{1-[(1-methylcyclobutyl)methyl]-1H-pyrazol-4-yl}pyridine-2-carbonitrile], the EC50 amounted to 23.6 nM. Next, `Cc1cn2ccc(-c3nc(C#N)ccc3-c3cnn(CC(F)(F)C(F)F)c3)cc2n1` [Example 22, 6-(2-methylimidazo[1,2-a]pyridin-7-yl)-5-[1-(2,2,3,3-tetrafluoropropyl)-1H-pyrazol-4-yl]pyridine-2-carbonitrile]: 202 nM. In the case of `Cc1ccc(-c2cnn(CC3(C)CCC(F)(F)CC3)c2)c(-c2ccc3c(c2)C(=O)N(C)C3)n1` [Example 15, 6-(3-{1-[(4,4-difluoro-1-methylcyclohexyl)methyl]-1H-pyrazol-4-yl}-6-methylpyridin-2-yl)-2-methyl-2,3-dihydro-1H-isoindol-1-one], the EC50 is 26.5 nM.

`Cc1cn2ccc(-c3nc(C#N)ccc3-c3cnn(CCC(F)(F)C(F)(F)F)c3)cc2n1` [Example 29, 6-(2-methylimidazo[1,2-a]pyridin-7-yl)-5-[1-(3,3,4,4,4-pentafluorobutyl)-1H-pyrazol-4-yl]pyridine-2-carbonitrile]: the EC50 was determined as 96.9 nM. For the compound `Cc1cn2ccc(-c3nc(C#N)ccc3-c3cnn(CC(C)(O)C(F)(F)F)c3)cc2n1` (centres unmarked) [Example 125, 6-(2-methylimidazo[1,2-a]pyridin-7-yl)-5-(1-(3,3,3-trifluoro-2-hydroxy-2-methylpropyl)-1H-pyrazol-4-yl)picolinonitrile], the EC50 was 161 nM. `CC(C)(C)Cn1cc(-c2ccc(C#N)nc2-c2ccn3c(Cl)cnc3c2)cn1` [Example 117, 6-(3-chloroimidazo[1,2-a]pyridin-7-yl)-5-(1-neopentyl-1H-pyrazol-4-yl)picolinonitrile]: the EC50 is 33.4 nM. Consider `CC(C)(C)Cn1cc(-c2ccc(C#N)nc2-c2ccn3ncnc3c2)cn1` [Example 72, 5-[1-(2,2-dimethylpropyl)-1H-pyrazol-4-yl]-6-[1,2,4]triazolo[1,5-a]pyridin-7-ylpyridine-2-carbonitrile], for which the EC50 was 136 nM. Next, `CC(C)CCn1cc(-c2cc(Cl)cnc2-c2ccc3cn(C)nc3c2)cn1` [Example 77, 6-{5-chloro-3-[1-(3-methylbutyl)-1H-pyrazol-4-yl]pyridin-2-yl}-2-methyl-2H-indazole]: 278 nM; `N#Cc1ccc(-c2cnn(CC(F)(F)C(F)(F)C(F)(F)F)c2)c(-c2ccn3ccnc3c2)n1` [Example 24, 5-[1-(2,2,3,3,4,4,4-heptafluorobutyl)-1H-pyrazol-4-yl]-6-imidazo[1,2-a]pyridin-7-ylpyridine-2-carbonitrile]: 89.9 nM; `Cc1cn2ncc(-c3nc(C#N)ccc3-c3cnn(CC(C)(C)C(F)(F)F)c3)cc2n1` [Example 39, 6-(2-methylimidazo[1,2-b]pyridazin-7-yl)-5-[1-(3,3,3-trifluoro-2,2-dimethylpropyl)-1H-pyrazol-4-yl]pyridine-2-carbonitrile]: 75.8 nM. For the compound `Cc1cn2ccc(-c3nc(C#N)ccc3-c3cnn(CCC(C)(C)C#N)c3)cc2n1` [Example 49, 5-[1-(3-cyano-3-methylbutyl)-1H-pyrazol-4-yl]-6-(2-methylimidazo[1,2-a]pyridin-7-yl)pyridine-2-carbonitrile], the EC50 is 174 nM. For the compound `Cc1nc2cc(-c3nc(C#N)ccc3-c3cnn(CC4(C(C)(F)F)CC4)c3)ccc2n1C` [Example 62, 5-(1-{[1-(1,1-difluoroethyl)cyclo-propyl]methyl}-1H-pyrazol-4-yl)-6-(1,2-dimethyl-1H-benzimidazol-5-yl)pyridine-2-carbonitrile], the EC50 stood at 66.1 nM. Take `Cc1cn2ccc(-c3nc(C#N)ccc3-c3cnn(CC(C)(F)F)c3)cc2n1` [Example 20, 5-[1-(2,2-difluoropropyl)-1H-pyrazol-4-yl]-6-(2-methylimidazo[1,2-a]pyridin-7-yl)pyridine-2-carbonitrile]: the EC50 is 144 nM. For the compound `Cc1nc2cc(-c3nc(C#N)ccc3-c3cnn(C[C@]4(F)C[C@H](F)C4)c3)ccc2n1C` [Example 129, 5-(1-(((1r,3r)-1,3-difluorocyclobutyl)methyl)-1H-pyrazol-4-yl)-6-(1,2-dimethyl-1H-benzo[d]imidazol-5-yl)picolinonitrile], the EC50 was 114 nM. In the case of `CC(C)CCn1cc(-c2ccc(Cl)nc2-c2ccc3c(c2)C(=O)N(Cc2ccc(O)cc2)C3)cn1` [Example 114, 6-{6-chloro-3-[1-(3-methylbutyl)-1H-pyrazol-4-yl]pyridin-2-yl}-2-(4-hydroxybenzyl)-2,3-dihydro-1H-isoindol-1-one] it was 22.8 nM.

As for `Cc1ccc(-c2cnn(Cc3ccccc3F)c2)c(-c2ccc3c(c2)C(=O)N(C2CC2)C3)n1` [Example 13, 2-cyclopropyl-6-{3-[1-(2-fluorobenzyl)-1H-pyrazol-4-yl]-6-methylpyridin-2-yl}-2,3-dihydro-1H-isoindol-1-one], the EC50 was 126 nM. In the case of `Cc1cn2ccc(-c3nc(C#N)ccc3-c3cnn(CC(F)C(F)(F)F)c3)cc2n1` (centres unmarked) [Example 41, 6-(2-methylimidazo[1,2-a]pyridin-7-yl)-5-[1-(2,3,3,3-tetrafluoropropyl)-1H-pyrazol-4-yl]pyridine-2-carbonitrile] it was 62.2 nM; in that of `CC(C)(C)Cn1cc(-c2ccc(C#N)nc2-c2ccn3cc(Cl)nc3c2)cn1` [Example 67, 6-(2-chloroimidazo[1,2-a]pyridin-7-yl)-5-[1-(2,2-dimethylpropyl)-1H-pyrazol-4-yl]pyridine-2-carbonitrile], 17.7 nM; in that of `FC(F)(F)C1(Cn2cc(-c3cc(Cl)cnc3-c3ccn4ccnc4c3)cn2)CC1` [Example 57, 7-[5-chloro-3-(1-{[1-(trifluoromethyl)cyclo-propyl]methyl}-1H-pyrazol-4-yl)pyridin-2-yl]imidazo[1,2-a]pyridine], 268 nM. Take `Cn1nc2ccc(-c3nc(C#N)ccc3-c3cnn(CC(C)(C)C)c3)cc2n1` [Example 69, 5-[1-(2,2-dimethylpropyl)-1H-pyrazol-4-yl]-6-(2-methyl-2H-benzotriazol-5-yl)pyridine-2-carbonitrile]: the EC50 came out at 243 nM.

Turning to `Cc1cn2ccc(-c3nc(C#N)ccc3-c3cnn(CC(C)(C)CC(F)(F)F)c3)cc2n1` [Example 16, 6-(2-methylimidazo[1,2-a]pyridin-7-yl)-5-[1-(4,4,4-trifluoro-2,2-dimethylbutyl)-1H-pyrazol-4-yl]pyridine-2-carbonitrile], the EC50 worked out at 61.7 nM.

Turning to `Cc1cn2ncc(-c3nc(C#N)ccc3-c3cnn(CC(C)(C)C)c3)cc2n1` [Example 88, 5-[1-(2,2-dimethylpropyl)-1H-pyrazol-4-yl]-6-(2-methylimidazo[1,2-b]pyridazin-7-yl)pyridine-2-carbonitrile], the EC50 stood at 68.7 nM. For `CC(C)(Cn1cc(-c2ccc(C#N)nc2-c2ccn3ccnc3c2)cn1)C(F)F` [Example 107, 5-[1-(3,3-difluoro-2,2-dimethylpropyl)-1H-pyrazol-4-yl]-6-imidazo[1,2-a]pyridin-7-ylpyridine-2-carbonitrile], the EC50 is 32.1 nM.

Take `Cc1nc2cc(-c3nc(C#N)ccc3-c3cnn(CC(C)(C)C(F)(F)F)c3)ccn2n1` [Example 101, 6-(2-methyl[1,2,4]triazolo [1,5-a]pyridin-7-yl)-5-[1-(3,3,3-trifluoro-2,2-dimethylpropyl)-1H-pyrazol-4-yl]pyridine-2-carbonitrile]: the EC50 came to 58 nM.
